Assay results from ChEMBL document CHEMBL4480415, “Design and synthesis of potent myostatin inhibitory cyclic peptides” (Bioorg Med Chem, 2019).
Where a SMILES comes first, the peptide text is derived from it. Bridges are numbered along the chain shown (N, C = ends). The star is where a group is joined. Acetyl(2-naphthyloxy) = O=C(COc1ccc2ccccc2c1)*

Assay: Aqueous solubility of compound
Assay type: physicochemical
Conditions: buffer

Question: With `CC[C@H](C)[C@H](NC(=O)[C@H](CCCNC(=N)N)NC(=O)[C@H](CO)NC(=O)[C@H](Cc1ccc(O)cc1)NC(=O)[C@H](CCCNC(=N)N)NC(=O)[C@@H]1CSSC[C@H](NC(=O)COc2ccc3ccccc3c2)C(=O)N[C@@H](CCC(N)=O)C(=O)N[C@@H](CC(N)=O)C(=O)N1)C(=O)N[C@@H](CCC(=O)O)C(=O)N[C@@H](Cc1c[nH]c2ccccc12)C(=O)N[C@H](C(=O)N[C@@H](CCCCN)C(=O)N[C@H](C(=O)N[C@@H](CCC(N)=O)C(=O)N[C@H](C(=O)N[C@H](C(=O)N[C@@H](CO)C(=O)N[C@@H](CCCCN)C(=O)N[C@@H](CC(C)C)C(=O)N[C@@H](CCCNC(=N)N)C(=O)N[C@@H](CC(C)C)C(N)=O)[C@@H](C)CC)[C@@H](C)CC)[C@@H](C)CC)[C@@H](C)CC` ({Acetyl(2-naphthyloxy)}-CQNCRYSRIEWIKIQIISKLRL-NH2; disulfide 1-4) as the compound, how does the solubility read?
Answer: Its solubility is “Insoluble”.
